Assay results as given in ChEMBL document CHEMBL3507680, “University of Dundee, Gates Library screen for HepG2 cell viability”.

Assay: Human HepG2 cell viability assay in 384 well format
Type: toxicity, cell-based
Parameters: dose 125 nL, time 70.5 hour; cytotoxicity at 70.5 h: concentration not given beside the values
Settings: HepG2 cells, read-out: Inhibition

Compound	cytotoxicity at 70.5 h [%]
O=C1CC2(CCCC2)CC(=O)N1Cc1nc2ncccn2n1	1.37
O=C1CC2(CCCC2)CC(=O)N1Cc1nccs1	-1.44
COc1cccc(N2CCC(N3C[C@@H](NC(C)=O)[C@H](C(C)C)C3)CC2)c1	-6.54
FC(F)(F)CCc1ccnc(NC2CCOC2)n1 (configuration not stated)	27.9
COC[C@@H]1CCCN1C(=O)c1cc(-c2cccc(OC)c2)n[nH]1	-2.07
CSCC[C@H](NC(C)=O)c1nc(CCc2ccccc2)n[nH]1	-3.53
CCC[C@H]1CN(CCS(C)(=O)=O)C[C@@H]1NC(=O)c1cc[nH]n1	-16
CCCOC(C)C(=O)NCc1cc2n(n1)CCCN(C1CCCCC1)C2 (configuration not stated)	0.0071
CCn1ccnc1CN1CCC(Oc2cccc(F)c2)(C(=O)O)CC1	-4.69
CN(CC1CCOCC1)C(C(=O)O)c1cccc(F)c1F (configuration not stated)	0.34
Cc1nc2c(c(N(C)C)n1)CCN(C(=O)CN1CCC(O)CC1)C2	-6.35
CCNc1ncc(C(=O)NCc2csc(-c3cnccn3)n2)cn1	-10.4
Cc1ccc(CC2COc3ccccc3C2)c(N)n1 (configuration not stated)	16.3
CC(C)NS(=O)(=O)c1cc(C(=O)O)cc(-c2ccc3c(c2)OCCO3)c1	-8.82
CN(C)CC(C)(C)Cn1cnc(-c2ccccc2)c1-c1cccc(O)c1	-10.8
CCCn1ccnc1CN1CCC(O)(CN2CCCCC2)C1 (configuration not stated)	-4.35
CCc1ncc(CN2CCC(Oc3ccccc3OC)CC2)cn1	-0.00137
CN(CCc1ncnn1C1Cc2ccccc2C1)C1CCS(=O)(=O)C1 (configuration not stated)	-11.8
CC(C)n1ccnc1CN1CCOC(CCc2ccccc2)C1 (configuration not stated)	-13.7
COc1ccc(-c2cc(CN)ccc2F)c(OC)c1OC	6.26
Cc1ccccc1Oc1ncccc1CNC1CCC1	1.33

Compound	cytotoxicity at 70.5 h [%]
O=C(CCCn1cnnn1)N1CCC(c2ccncc2)CC1	22.6
Cc1ccc(C2(C(=O)N3CCC(n4cc(C(C)O)nn4)CC3)CC2)cc1 (configuration not stated)	-7.08
Cc1ccc(N2C[C@@H](CN3CCOCC3)[C@@H](CO)C2)nn1	-16.8
COc1cc(N2CCCC(c3nccn3Cc3ccncc3)C2)ncn1 (configuration not stated)	-6.57
CSCCNC(=O)c1coc(COc2ccc(F)cc2)n1	7.74
CCc1ccccc1OCCN(C)C(=O)CCN1CCCCO1	-7.24
Cc1ccnc(NCCNC(=O)c2ccccc2NCC(=O)O)c1	5.62
CCCc1nc(N(C)Cc2cnc(NC)nc2)c2cnn(C)c2n1	8.94
CCc1ccc(NC(=O)CCN2CC(n3nc(C)cc3C)C2)cc1	-1.14
NCCn1cc(C(=O)NCc2ccccc2Cn2cccn2)nn1	-6.05
N#Cc1ccccc1CN1C[C@H]2CC[C@@H]1CN(C(=O)c1cccnc1)C2	-10.2
CCC(C(=O)N(C)C)n1ccc2ncccc2c1=O (configuration not stated)	-13.2
CC(C)c1nc(Cn2cncn2)n(-c2ccccn2)n1	-4.77
O=C(CCn1ccnc1)N1CC[C@@H](c2ccc3ccccc3c2)[C@H](O)C1	4.4
CN1CCC(c2ncc3c(n2)CCN(C(=O)CC2C=CCC2)C3)CC1 (configuration not stated)	-7.45
CC(=O)N1C[C@@H](c2ccsc2)[C@@H]2CN(Cc3ccccc3)CC[C@@H]21	-10.8
CC(=O)N1C[C@@H](c2ccsc2)[C@@H]2CN(Cc3cccc(Cl)c3)CC[C@@H]21	8.95
CCc1nccn1-c1cncc(C2CCCN2Cc2cccnc2)n1 (configuration not stated)	-5.1
COc1ccccc1CC(=O)N1CC[C@@]2(CCCO2)[C@@H](OC)C1	25.6
CCCc1cc(C(=O)N2CCOC(c3nc(-c4cccs4)no3)C2)no1 (configuration not stated)	1.76
Cc1nccn1-c1cccc(C2CCCN2S(=O)(=O)c2cn(C)cn2)n1 (configuration not stated)	31.6

Compound	cytotoxicity at 70.5 h [%]
Cc1nc(CN2CCCC(NCc3cccc4ccccc34)C2)no1 (configuration not stated)	27.7
Cc1nc(C)n(C2CCCN(C(=O)CCOC(C)C)C2)n1 (configuration not stated)	10.2
COc1c(C2CCCN2C(=O)c2scnc2C)c(C)nn1C (configuration not stated)	-10.9
Cc1nc(C)n(C2CCCN(C(=O)COc3cccc(C#N)c3)C2)n1 (configuration not stated)	-20.2
CC(C)c1nc(C2CCCN2Cc2ccncc2Cl)no1 (configuration not stated)	-11.2
Cc1nc(CN2CCCC(NCc3ccc(Cl)s3)C2)no1 (configuration not stated)	-13
COc1c(C2CCCN2C(=O)c2cnc(C)cn2)c(C)nn1C (configuration not stated)	10.6
Cc1cccc(C(=O)NCc2ccc(CS(N)(=O)=O)cc2)n1	-16.5
CN(C)C(=O)C1CCN(Cn2nc(-c3ccc(F)cc3)oc2=O)CC1	-5.92
CNC(=O)COc1cccc(CNC(=O)c2c(C)noc2C(C)C)c1	-13.2
O=c1oc(-c2ccc(F)cc2)nn1CN1CCN(CC2CC2)CC1	-21.3
Cc1cccc(-c2nc(C)nn2CC(=O)NC(C)C)c1	18.6
CC1CN(Cc2cnn(C)c2)CCN1c1ccc2nncn2n1 (configuration not stated)	-14.4
Cc1nnc2n1CCN(C(=O)c1cc3cc(F)ccc3[nH]1)C2	-12.8
Cc1nc(CN2CCCC(NCc3csc(C(C)(C)C)n3)C2)no1 (configuration not stated)	-6.65
CC(C)c1nnc2n1CCN(C(=O)c1cc3cc(F)ccc3[nH]1)C2	-16.2
CN1CCN(C2CCN(CCOc3cccc(F)c3)CC2)C1=O	-13
CCc1nc(CC(=O)N2CCCC2c2c(C)nn(C)c2OC)cs1 (configuration not stated)	-8.39
Cc1ccc(OCC(=O)N2CCCC(n3nc(C)nc3C)C2)cc1 (configuration not stated)	-8.6
Cc1ccc(OCCC(=O)N2CCCC(n3nc(C)nc3C)C2)cc1 (configuration not stated)	-11.7
COc1c(C2CCCN2C(=O)c2cccc(C)n2)c(C)nn1C (configuration not stated)	-16.2

Compound	cytotoxicity at 70.5 h [%]
CC1CN(Cc2cccnc2)CCN1c1ccc2nncn2n1 (configuration not stated)	-8.86
O=C(Cc1ccccc1)NCCNCc1cccc(O)c1	36.6
CN(C)C(=O)c1cccc(CN2CCOC(Cn3cncn3)C2)c1 (configuration not stated)	-4.81
COc1ccc(-n2ccc(C(=O)NCCN3CCCC(C)C3)n2)cc1 (configuration not stated)	23.3
c1cnn(CC2CCCN2Cc2noc(C3CC3)n2)c1 (configuration not stated)	-3.73
CCc1csc(C2CCCN(C(=O)c3ccccn3)C2)n1 (configuration not stated)	-7.06
c1ccc(Oc2ccc(CNCC3CNc4ccnn4C3)cn2)cc1 (configuration not stated)	-9.82
Clc1cccc(-c2nc(CNC3CCc4ncnn4C3)co2)c1 (configuration not stated)	11.6
O=C1CN(c2ccc(CNC(=O)NCc3ccoc3)cc2)CCN1	-11.8
CC(C)C(NC(=O)NCCNc1ncccn1)c1cccs1 (configuration not stated)	-6.23
O=C(NCCN1CCCCC1)c1ccn(-c2ccccc2)n1	24.7
O=C(Cc1cccc(F)c1)NCCCNC(=O)c1cccc(O)c1	-2.95
COc1ccc(OC2CCN(Cc3ccn(C)c(=O)c3)CC2)cc1	0.479
COc1ccccc1CNC(=O)C[S+]([O-])Cc1cc(C)on1 (configuration not stated)	-3.68
Clc1ccccc1-c1nc(CNC2CCc3ncnn3C2)co1 (configuration not stated)	-2.04
CCc1csc(C2CCCN(C(=O)c3ncccn3)C2)n1 (configuration not stated)	-0.847
CC(C(=O)NCc1ccc(N2CCNC(=O)C2)cc1)c1cccs1 (configuration not stated)	-4.67
COC(=O)c1cccc(S(=O)(=O)NC(=O)COC2CCCCC2)c1	-3.15
COc1ncc(C2(O)CCN(Cc3c(F)cccc3F)CC2)c(OC)n1	31.4
